For eight compounds, CC50 results are on record in paper PMC9450471 (Computational Biology and Chemistry, 2022).

A value given as a limit tells only on which side of the number the result lay.

The nature of the series: in vitro. The conditions noted are these: African green monkey.
For `CC(C)Nc1nc2cc(Cl)c(Cl)cc2n1[C@H]1O[C@@H](CO)[C@H](O)[C@@H]1O` [Maribavir], the CC50 was greater than 100 µM.
Compound `OC[C@H]1O[C@@H](n2cnc3c(N[C@@H]4CCOC4)ncnc32)[C@H](O)[C@@H]1O` [Tecadenoson] came in with a CC50 greater than 100 µM.
In the case of `COc1nc(N)nc2c1ncn2[C@@H]1O[C@H](CO)[C@@H](O)[C@@H]1O` [Nelarabine] it was greater than 100 µM; in that of `CC(C)=CCNc1ncnc2c1ncn2[C@@H]1O[C@H](CO)[C@@H](O)[C@H]1O` [Riboprine, N ^6-(2-Isopentenyl)adenosine], greater than 100 µM; in that of `CCC(CC)COC(=O)[C@H](C)N[P@](=O)(OC[C@H]1O[C@@](C#N)(c2ccc3c(N)ncnn23)[C@H](O)[C@@H]1O)Oc1ccccc1` [Remdesivir], greater than 100 µM.
The figure for `CC(C)C(=O)OC[C@H]1O[C@@H](n2ccc(NO)nc2=O)[C@H](O)[C@@H]1O` [Molnupiravir] is greater than 100 µM.
`Nc1ncnc2c1ncn2[C@@H]1O[C@H](CO)[C@@H](O)[C@@H]1O` [Vidarabine, Arabinosyladenine] yielded a CC50 greater than 100 µM.
In the case of `O=c1[nH]cnc2c([C@@H]3N[C@H](CO)[C@@H](O)[C@H]3O)c[nH]c12` [Forodesine], the CC50 is greater than 100 µM.
